15 compounds from PubChem BioAssay (NCI) can be followed below.

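Growth conditions: 96-well plates. Treatment: test compound, 48 hours, 5 concentrations. Analysis: linear interpolation between bracketing concentrations; unreached endpoints set to highest concentration. The concentration for 50% growth inhibition is given as GI50. TGI marks complete inhibition of growth.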 Where only a bound is given, the exact number is not on record here.

Common to all, as to assay: DTP human tumour cell line panel, 48 h
Test [1] deals with 786-0 renal.
Test [2] deals with BT-549 breast.
Test [3] has as its system CCRF-CEM leukemia.
Test [4] relates to HCT-116 colon.
Test [5] deals with HOP-92 NSCLC.
The subject of test [6] is KM12 colon.
Test [7] relates to LOX IMVI melanoma.
Test [8] deals with MOLT-4 leukemia.
Test [9] relates to OVCAR-5 ovarian.
The subject of test [10] is RXF 393 renal.

As to `CCCCCCCCCc1ccc(OCCOCCOCCOCCOCCOCCOCCOCCOCCO)cc1`, the GI50 – broadly, the concentration giving 50% growth inhibition – in test [1] is 1.02 µM; in test [2], 0.59 µM; in test [3] it was 0.305 µM; in [4] it was 0.374 µM; in test [5], 0.792 µM; in test [6], 0.598 µM. Further, the GI50 in test [7] is 0.23 µM; in test [8], 0.704 µM; in test [9], 1.1 µM; in test [10], 1.03 µM. The TGI (as a rule, the concentration at which net growth stops) in [1] is 4.12 µM; in test [2] it was 1.61 µM; in [3] it was 2.04 µM; in test [4], 1.59 µM; in test [5], 3.07 µM; in test [6], 4.02 µM. Further, the concentration for total growth inhibition (TGI) came to 0.996 µM in test [7], 2.15 µM in test [8], 3.54 µM in [9] and 3.37 µM in [10].

In the case of `C=C1C(=O)O[C@H]2[C@H]1CC/C(COC(=O)N[C@H]1C[C@H](O[C@H]3C[C@](O)(C(=O)CO)Cc4c(O)c5c(c(O)c43)C(=O)c3c(OC)cccc3C5=O)O[C@@H](C)[C@H]1O)=C\CC[C@@]1(C)O[C@@H]21`, the GI50 in test [1] is 5.7 µM; in test [2], 2.4 µM; in test [3], 0.672 µM; in test [4], 1.72 µM; in test [5], 0.838 µM; in [6], 13.2 µM. Also, the GI50 in [7] was 2.17 µM; in test [8] it was 1.03 µM; in test [9], 6.91 µM; in [10], 1.22 µM. The TGI in test [1] came to 16.5 µM; in test [2], 9.24 µM; in test [3], 2.28 µM; in test [4], 5.58 µM; in test [5], 2.28 µM; in test [6], 40.7 µM. In addition, the TGI in test [7] was determined as 8.25 µM; in [8] it was 2.83 µM; in test [9], 18 µM; in test [10], 3.85 µM.

With `O=C1c2cccnc2-c2nc(-c3cccnc3)cc3c2c1nc1ccccc13`, the GI50 in [1] is 2.74 µM; in test [2] it was 4.53 µM; in [3] it was 5.23 µM; in [4] it was 2.8 µM; in test [5], 6.44 µM; in test [6], 4.16 µM. The GI50 in [7] is 2.8 µM; in test [8], 3.21 µM; in test [9] it was 12.2 µM; in test [10] it was 3.95 µM. For the same compound, the TGI in test [1] is 8.85 µM; in [2], 9.5 µM; in [3], above 100 µM; in test [4], above 32.7 µM; in [5], 80.6 µM; in test [6], above 44.5 µM. Also, the concentration for total growth inhibition (TGI) in test [7] is above 25.1 µM; in test [8], above 41.3 µM; in test [9], 30.1 µM; in [10], 11.3 µM.

As for `Nc1nc(N)c2cc(Sc3ccc4ccccc4c3)ccc2n1`, the TGI in test [1] amounted to 3.27 µM; in test [2] it was 9 µM; in test [3] it was 4.83 µM; in test [4], 1.69 µM; in test [5], 5.44 µM; in test [6], 3.25 µM. Besides, the total growth inhibition concentration (TGI) in [7] is 1.93 µM; in [8] it was 5.51 µM; in [9], 10.4 µM; in test [10], 4.62 µM.

As to `c1ccc(-c2nc3n(c2-c2ccc4c(c2)OCO4)CCC3)nc1`, the GI50 is 3.89 µM in [1]; 10 µM in test [2]; 7.63 µM in test [3]; 8.16 µM in test [4]; 3.48 µM in [5]; 5.9 µM in test [6]. Also, the GI50 in test [7] was 7.46 µM; in test [8], 6.63 µM; in [9], 5.03 µM; in test [10], 2.45 µM. Also, the TGI is 24.9 µM in test [1]; above 25 µM in [2]; above 25 µM in test [3]; above 25 µM in test [4]; 20.8 µM in test [5]; above 25 µM in test [6]. The TGI in test [7] was above 25 µM; in [8], above 21.4 µM; in test [9], above 25 µM; in test [10], above 17.5 µM.

Consider `O=C1/C(=C\c2ccco2)Oc2ccccc21`, for which the TGI in test [1], in [2], in test [3], in [4], in test [5] and in test [6] was above 100 µM throughout. Further, the TGI in [7], in test [8], in [9] and in [10] was above 100 µM throughout.

In the case of `Clc1ccc(/C=C/c2ccc3ccccc3n2)cc1`, the GI50 was 6.33 µM in test [1]; 3.16 µM in [2]; 0.508 µM in test [3]; 0.399 µM in test [4]; 2.82 µM in test [5]; 1.42 µM in test [6]. In addition, the GI50 is 2.51 µM in [7], 3.01 µM in test [8], 4.36 µM in [9] and 0.648 µM in test [10]. In addition, the TGI in [1] is above 100 µM; in test [2], above 71.8 µM; in test [3] it was above 100 µM; in [4] it was above 100 µM; in test [5] it was above 29.9 µM; in test [6], 20.6 µM. The TGI in test [7] was above 100 µM; in test [8] it was above 100 µM; in test [9], above 100 µM; in test [10] it was above 74.7 µM.

Turning to `O=C(NN1C(=O)CSC1c1cccc(Cl)c1)C(O)c1ccccc1` (stereo not given), the GI50 in test [1] was above 100 µM; in test [2], above 100 µM; in test [3] it was above 100 µM; in test [4], 83.8 µM; in test [5], above 100 µM; in [6], 90.4 µM. Besides, the GI50 in [7] was above 100 µM; in test [8], 77.8 µM; in [9], above 100 µM; in test [10] it was 59.3 µM. Besides, the total growth inhibition concentration (TGI) in [1], in [2], in test [3], in [4], in test [5] and in test [6] was above 100 µM throughout. The total growth inhibition concentration (TGI) in [7], in [8], in [9] and in [10] was above 100 µM each time.

`NC(=O)c1cccnc1`: the GI50 in [1] was above 100 µM; in [2], above 100 µM; in [3], 5.99 µM; in test [4], above 100 µM; in test [5] it was above 100 µM; in test [6] it was above 100 µM. Also, the GI50 in test [7], in test [8], in [9] and in test [10] was above 100 µM each time. Further, the TGI in test [1], in [2], in test [3], in test [4], in test [5] and in [6] was above 100 µM each time. Moreover, the total growth inhibition concentration (TGI) in test [7], in [8], in [9] and in [10] was above 100 µM in each case.

In the case of `COc1ccc(-c2nc(-c3nc4cc(Cl)c(F)cc4[nH]3)c3ccccn23)cc1`, the GI50 is 8.94 µM in [1]; 4.91 µM in test [2]; 3.91 µM in test [3]; 6.09 µM in test [4]; 3.24 µM in test [5]; 4.56 µM in test [6]. Also, the GI50 in [7] is 5.36 µM; in test [8], 4.21 µM; in [9], above 100 µM; in [10] it was 4.65 µM. Further, the TGI in test [1], in test [2], in [3], in test [4], in [5] and in test [6] was above 100 µM throughout. For the same compound, the TGI in [7], in test [8], in test [9] and in test [10] was above 100 µM each time.

Take `CCOC(=O)c1ccc(NC(=O)NC2=NCCS2)cc1`: the GI50 in test [1] is 0.693 µM; in test [2], 0.84 µM; in test [3] it was 0.433 µM; in [4], 50.9 µM; in test [5], 0.418 µM; in test [6] it was 0.434 µM. Moreover, the GI50 in [7] was 39.9 µM; in [8], 1.17 µM; in test [9], 99.1 µM; in test [10], 0.429 µM. The TGI in test [1] is above 100 µM; in test [2], above 40.1 µM; in test [3] it was above 100 µM; in test [4], above 100 µM; in test [5] it was above 100 µM; in test [6], above 100 µM. Moreover, the concentration for total growth inhibition (TGI) in [7] is above 100 µM; in [8] it was above 100 µM; in [9], above 100 µM; in test [10], 3.3 µM.

With `Cn1c(=O)n(C)c2cc(CNCCNc3ccnc4cc(Cl)ccc34)ccc21`, the GI50 in test [1] was 23.1 µM; in [2], above 100 µM; in test [3], 30.7 µM; in [4], 17.9 µM; in test [5], 10.1 µM; in test [6], 37.3 µM. The GI50 in test [7] was 14.3 µM; in [8], 21.1 µM; in test [9], 20.3 µM; in test [10], 12.6 µM. In addition, the TGI in test [1] was 71.8 µM; in [2], above 100 µM; in [3], above 100 µM; in test [4], 54.5 µM; in test [5], 49.6 µM; in [6], above 100 µM. The TGI in test [7] was 30.1 µM; in [8] it was above 100 µM; in [9], 65.4 µM; in test [10], 31.2 µM.

On to `Cc1ccc(S(=O)(=O)c2nc(-c3ccccc3)oc2S(C)(=O)=O)cc1`, for which the GI50 in test [1] is 1.66 µM; in [2], 1.85 µM; in [3] it was 2.83 µM; in test [4], 1.78 µM; in [5], 1.84 µM; in test [6], 13 µM. The GI50 in [7] was 1.59 µM; in test [8], 2.27 µM; in [9] it was 2.12 µM; in test [10], 1.69 µM. The TGI was determined as 3.19 µM in [1]; 3.72 µM in test [2]; 8.16 µM in test [3]; 3.25 µM in test [4]; 3.48 µM in test [5]; 27.2 µM in test [6]. Also, the TGI in [7] stood at 2.99 µM; in test [8], 5.87 µM; in test [9], 5.28 µM; in test [10], 3.13 µM.

As for `CCn1cc(/C=C2\Oc3cc(OCC#N)ccc3C2=O)c2cc(OC)ccc21`, the GI50 in test [1] is 0.167 µM; in [2] it was 0.229 µM; in [3], 0.113 µM; in [4], 0.143 µM; in test [5], 11.2 µM; in test [6] it was 0.546 µM. The concentration for 50% growth inhibition (GI50) was 0.238 µM in test [7], 0.187 µM in test [8], 1.41 µM in test [9] and 0.152 µM in test [10]. For the same compound, the TGI in test [1] was above 40.9 µM; in test [2] it was 20.3 µM; in [3], above 100 µM; in [4], above 100 µM; in test [5], 68.6 µM; in [6], above 100 µM. Also, the TGI in [7] was above 100 µM; in [8] it was above 100 µM; in test [9], above 100 µM; in test [10], 0.614 µM.

As to `FC(F)(F)c1ccc(-c2nn3ncccc3c2-c2ccnc(Nc3ccc4c(c3)OCCO4)n2)cc1`, the GI50 in test [1] was 17.3 µM; in test [2], 17.3 µM; in test [3] it was 10.8 µM; in test [4] it was 8.15 µM; in [5], 2.02 µM; in test [6], 10.7 µM. Further, the GI50 is 5.16 µM in test [7], 6.11 µM in test [8], 7.11 µM in test [9] and 4.4 µM in test [10]. Also, the TGI in test [1] is above 25 µM; in test [2], above 25 µM; in test [3], above 25 µM; in test [4] it was above 25 µM; in test [5] it was 21.9 µM; in test [6] it was above 25 µM. Also, the total growth inhibition concentration (TGI) was 15.3 µM in test [7], above 23.3 µM in test [8], above 23.2 µM in test [9] and above 17 µM in test [10].
